These results are taken from article PMC5488175, “A New Methodology for Incorporating Chiral Linkers into Stapled Peptides” (Chembiochem, 2017).

The structures appear in SMILES notation.

Data set [1] is described as follows: Circular dichroism helicity. Format: physicochemical. To be noted: CD, MRE222 vs theoretical maximum; PBS (50 mM)/acetonitrile 95:5, pH 7.4, 20 °C; average of three scans. Here is the method:
Each purified peptide was dissolved in phosphate buffer (PBS; 50 mM)/acetonitrile (95:5, pH 7.4) and its circular dichroism spectrum was recorded.
Circular dichroism: CD spectra were obtained on a Chirascan CD spectrometer at 20 °C (1 mm path length, 260–190 nm, bandwidth 1.0 nm, response time 0.5 s, step resolution 1.0 nm) Each spectrum is the average of three scans. Peptides were dissolved in PBS (50 mM)/acetonitrile (95:5, pH 7.4) at 20 °C. The helicity was calculated as previously reported19b by comparing mean residue ellipticity at 222 nm (MRE222) to the theoretical maximum as calculated from the formula [Eq. (1), n=number of amino acid residues] described by Forood et al.21 (1) MRE222=-40000×(1-2.5/n)
Spectra were obtained at several concentrations ([…]).
On the technique in general: Circular dichroism is the unequal absorption of left and right circularly polarised light.

In data set [2] the test system is α-chymotrypsin. The data set can be described thus: Serum stability assay: incubation with α‐chymotrypsin. It counts as in vitro ADME. To be noted: α-chymotrypsin (0.5 μg/mL) in PBS, α-chymotrypsin 0.5 μg mL−1 in PBS, peptide 0.3 mM from DMSO stock, RT, HPLC 220 nm vs caffeine internal standard, duplicate, read-out: peptide remaining intact after 6 h of incubation with α‐chymotrypsin. On the procedure: Serum stability assay: Each peptide was dissolved in PBS (300 μL) from a DMSO stock to a final concentration of 0.3 mM. This PBS contained α‐chymotrypsin (0.5 μg mL^−1) and caffeine as an internal standard. Peptides were incubated at RT, and at each time point, an aliquot (30 μL) of the mixture was removed, snap frozen, thawed and centrifuged, and the supernatant was analysed by HPLC. Peptide degradation was monitored by comparing the integration of the peptide peak against the internal standard at […]. Experiments were performed in duplicate.

On to `CC(=O)N[C@@H](CCC(=O)O)C(=O)N[C@H](C(=O)N[C@@H](Cc1ccccc1)C(=O)N[C@@]1(C)CCCC=CCCC[C@@H](OC(=O)[C@H](CCCCN)NC(=O)[C@@H](N)CCCCN)c2cn(nn2)CC[C@@H](C(=O)N[C@@H](CCC(=O)O)C(=O)N[C@@H](CC(N)=O)C(N)=O)NC(=O)[C@H](CC(C)C)NC(=O)[C@H](CC(C)C)NC(=O)[C@H](CCCNC(=N)N)NC(=O)[C@H](Cc2c[nH]c3ccccc23)NC(=O)[C@H](CC(C)C)NC(=O)[C@H](CC(=O)O)NC1=O)[C@@H](C)O` [SP2‐K (A)], for which, in data set [1], the Helicity is listed as 65%. The same measure, in the same setting: next, `CC(=O)N[C@@H](CCC(=O)O)C(=O)N[C@H](C(=O)N[C@@H](Cc1ccccc1)C(=O)N[C@@]1(C)CCCC=CCCC[C@@H](OC(=O)[C@H](CCCCN)NC(=O)[C@@H](N)CCCCN)c2cn(nn2)CC[C@@H](C(=O)N[C@@H](CCC(=O)O)C(=O)N[C@@H](CC(N)=O)C(N)=O)NC(=O)[C@H](CC(C)C)NC(=O)[C@H](CC(C)C)NC(=O)[C@H](CCCNC(=N)N)NC(=O)[C@H](Cc2c[nH]c3ccccc23)NC(=O)[C@H](CC(C)C)NC(=O)[C@H](CC(=O)O)NC1=O)[C@@H](C)O` [SP2‐K (B)]: 36%. As a reminder, the share remaining is the share of the starting amount still present when the sample was taken. Consider `CC(=O)N[C@@H](CCC(=O)O)C(=O)N[C@H](C(=O)N[C@@H](Cc1ccccc1)C(=O)N[C@@]1(C)CCCC=CCCC[C@H](OC(=O)[C@@H](N)CCCCN)c2cn(nn2)CC[C@@H](C(=O)N[C@@H](CCC(=O)O)C(=O)N[C@@H](CC(N)=O)C(N)=O)NC(=O)[C@H](CC(C)C)NC(=O)[C@H](CC(C)C)NC(=O)[C@H](CCCNC(=N)N)NC(=O)[C@H](Cc2c[nH]c3ccccc23)NC(=O)[C@H](CC(C)C)NC(=O)[C@H](CC(=O)O)NC1=O)[C@@H](C)O` [SP1 (A)], for which the Helicity in data set [1] was found to be 53%. For the same compound, in data set [2], the amount remaining at 6 h, 0.3 mM amounted to 82%. `CC(=O)N[C@@H](CCC(=O)O)C(=O)N[C@H](C(=O)N[C@@H](Cc1ccccc1)C(=O)N[C@@]1(C)CCCC=CCCC[C@H](OC(=O)[C@@H](N)CCCCN)c2cn(nn2)CC[C@@H](C(=O)N[C@@H](CCC(=O)O)C(=O)N[C@@H](CC(N)=O)C(N)=O)NC(=O)[C@H](CC(C)C)NC(=O)[C@H](CC(C)C)NC(=O)[C@H](CCCNC(=N)N)NC(=O)[C@H](Cc2c[nH]c3ccccc23)NC(=O)[C@H](CC(C)C)NC(=O)[C@H](CC(=O)O)NC1=O)[C@@H](C)O` [SP1 (B)] had a Helicity in data set [1] of 31%. In data set [1], `CC(=O)N[C@@H](CCC(=O)O)C(=O)N[C@H](C(=O)N[C@@H](Cc1ccccc1)C(=O)N[C@@]1(C)CCCC=CCCC[C@@H](OC(=O)[C@@H](N)CCCCN)c2cn(nn2)CC[C@@H](C(=O)N[C@@H](CCC(=O)O)C(=O)N[C@@H](CC(N)=O)C(N)=O)NC(=O)[C@H](CC(C)C)NC(=O)[C@H](CC(C)C)NC(=O)[C@H](CCCNC(=N)N)NC(=O)[C@H](Cc2c[nH]c3ccccc23)NC(=O)[C@H](CC(C)C)NC(=O)[C@H](CC(=O)O)NC1=O)[C@@H](C)O` [SP2 (A)] showed a Helicity of 67%. Compound `CC(=O)N[C@@H](CCC(=O)O)C(=O)N[C@H](C(=O)N[C@@H](Cc1ccccc1)C(=O)N[C@@]1(C)CCCC=CCCC[C@H](OC(=O)[C@H](CCCCN)NC(=O)[C@@H](N)CCCCN)c2cn(nn2)CC[C@@H](C(=O)N[C@@H](CCC(=O)O)C(=O)N[C@@H](CC(N)=O)C(N)=O)NC(=O)[C@H](CC(C)C)NC(=O)[C@H](CC(C)C)NC(=O)[C@H](CCCNC(=N)N)NC(=O)[C@H](Cc2c[nH]c3ccccc23)NC(=O)[C@H](CC(C)C)NC(=O)[C@H](CC(=O)O)NC1=O)[C@@H](C)O` [SP1‐K (B)] registered a Helicity in data set [1] of 31%.

In turn, `C=CCCC[C@](C)(NC(=O)[C@H](Cc1ccccc1)NC(=O)[C@@H](NC(=O)[C@H](CCC(=O)O)NC(C)=O)[C@@H](C)O)C(=O)N[C@@H](CC(=O)O)C(=O)N[C@@H](CC(C)C)C(=O)N[C@@H](Cc1c[nH]c2ccccc12)C(=O)N[C@@H](CCCNC(=N)N)C(=O)N[C@@H](CC(C)C)C(=O)N[C@@H](CC(C)C)C(=O)N[C@@H](CCN=[N+]=[N-])C(=O)N[C@@H](CCC(=O)O)C(=O)N[C@@H](CC(N)=O)C(N)=O` [SP0] gave a Helicity in data set [1] of 52%. Also, the amount remaining at 6 h, 0.3 mM in data set [2] was 17%. Take `CC(=O)N[C@@H](CCC(=O)O)C(=O)N[C@H](C(=O)N[C@@H](Cc1ccccc1)C(=O)N[C@@]1(C)CCCC=CCCC[C@@H](OC(=O)[C@@H](N)CCCCN)c2cn(nn2)CC[C@@H](C(=O)N[C@@H](CCC(=O)O)C(=O)N[C@@H](CC(N)=O)C(N)=O)NC(=O)[C@H](CC(C)C)NC(=O)[C@H](CC(C)C)NC(=O)[C@H](CCCNC(=N)N)NC(=O)[C@H](Cc2c[nH]c3ccccc23)NC(=O)[C@H](CC(C)C)NC(=O)[C@H](CC(=O)O)NC1=O)[C@@H](C)O` [SP2 (B)]: the Helicity in data set [1] is given as 35%. Same read-out and setting: next, `CC(=O)N[C@@H](CCC(=O)O)C(=O)N[C@H](C(=O)N[C@@H](Cc1ccccc1)C(=O)N[C@@]1(C)CCCC=CCCC[C@H](OC(=O)[C@H](CCCCN)NC(=O)[C@@H](N)CCCCN)c2cn(nn2)CC[C@@H](C(=O)N[C@@H](CCC(=O)O)C(=O)N[C@@H](CC(N)=O)C(N)=O)NC(=O)[C@H](CC(C)C)NC(=O)[C@H](CC(C)C)NC(=O)[C@H](CCCNC(=N)N)NC(=O)[C@H](Cc2c[nH]c3ccccc23)NC(=O)[C@H](CC(C)C)NC(=O)[C@H](CC(=O)O)NC1=O)[C@@H](C)O` [SP1‐K (A)]: 55%.
